From US20090270398A1, “Compounds, Compositions and Methods Comprising Pyridazine Derivatives” (Institute for OneWorld Health, priority 2008, published 2009)
pIC50: −log10 of the molar value.

Each molecule was assayed against T1, CFTR (Homo sapiens, UniProt P13569) (assay: T84 assay (FLIPR membrane potential, forskolin/IBMX-stimulated CFTR channel activity)). Settings: average of at least 2 runs unless annotated n = 1.
T1 construct: results in the phosphorylation and opening of CFTR anion channels
T1 sequence (P13569 whole entry): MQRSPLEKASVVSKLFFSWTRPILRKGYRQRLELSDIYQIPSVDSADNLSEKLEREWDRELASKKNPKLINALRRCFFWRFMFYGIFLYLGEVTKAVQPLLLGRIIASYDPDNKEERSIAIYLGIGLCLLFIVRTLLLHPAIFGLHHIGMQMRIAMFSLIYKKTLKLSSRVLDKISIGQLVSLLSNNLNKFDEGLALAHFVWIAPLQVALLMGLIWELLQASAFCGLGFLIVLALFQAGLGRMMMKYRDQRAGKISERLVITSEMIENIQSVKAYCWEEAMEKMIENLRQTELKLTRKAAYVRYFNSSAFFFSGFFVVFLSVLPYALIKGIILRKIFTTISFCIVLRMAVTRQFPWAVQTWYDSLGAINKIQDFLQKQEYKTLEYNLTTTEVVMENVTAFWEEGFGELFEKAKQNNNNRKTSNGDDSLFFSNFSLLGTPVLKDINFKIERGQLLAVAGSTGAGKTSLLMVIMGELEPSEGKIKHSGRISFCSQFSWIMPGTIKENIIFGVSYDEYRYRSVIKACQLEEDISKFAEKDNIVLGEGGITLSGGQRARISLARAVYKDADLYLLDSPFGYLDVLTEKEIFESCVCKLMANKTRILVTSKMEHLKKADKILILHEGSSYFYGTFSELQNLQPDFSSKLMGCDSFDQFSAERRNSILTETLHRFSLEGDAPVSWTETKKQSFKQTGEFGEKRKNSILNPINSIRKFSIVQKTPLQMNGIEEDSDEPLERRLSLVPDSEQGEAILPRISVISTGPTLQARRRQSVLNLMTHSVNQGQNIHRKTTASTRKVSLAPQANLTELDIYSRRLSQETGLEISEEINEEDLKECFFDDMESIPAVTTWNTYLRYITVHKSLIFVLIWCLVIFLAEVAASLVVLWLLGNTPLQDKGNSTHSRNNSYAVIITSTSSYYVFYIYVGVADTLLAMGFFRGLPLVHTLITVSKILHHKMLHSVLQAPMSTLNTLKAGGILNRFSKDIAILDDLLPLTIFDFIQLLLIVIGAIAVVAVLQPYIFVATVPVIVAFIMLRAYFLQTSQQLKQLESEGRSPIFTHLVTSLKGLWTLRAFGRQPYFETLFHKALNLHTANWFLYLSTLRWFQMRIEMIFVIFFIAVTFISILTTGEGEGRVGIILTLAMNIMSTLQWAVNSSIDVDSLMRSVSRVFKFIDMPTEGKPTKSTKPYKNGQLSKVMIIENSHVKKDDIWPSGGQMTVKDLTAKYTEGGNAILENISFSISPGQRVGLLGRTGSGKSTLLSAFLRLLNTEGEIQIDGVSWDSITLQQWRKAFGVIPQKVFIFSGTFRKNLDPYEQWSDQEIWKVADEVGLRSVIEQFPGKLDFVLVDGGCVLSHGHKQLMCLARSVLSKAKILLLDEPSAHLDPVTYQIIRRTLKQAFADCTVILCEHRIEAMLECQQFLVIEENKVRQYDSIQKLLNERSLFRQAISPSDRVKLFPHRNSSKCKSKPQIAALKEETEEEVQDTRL
Type: cell-based
Procedure: (§1) For example, Human colonic T84 cells can be acquired from the European Collection of Cell Cultures (ECACC) and grown in standard culture conditions as described by the supplier. On the day before assay 25,000 T84 cells per well are plated into standard black walled, clear bottom 384-well assay plates in standard growth medium consisting of DMEM:F12 with 10% FBS and incubated overnight. On the day of the assay the plates are washed using a standard assay buffer (HBSS with 10 mM Hepes) and incubated for 15 minutes in serum free cell culture medium before the addition of a commercially available membrane potential sensitive fluorescent dye (FLIPR Red membrane potential dye, Molecular Devices Corporation). T84 cells are incubated with the FLIPR Red membrane potential dye for 45 minutes in the presence and absence of test compound before being transferred to a commercially available fluorescence imaging plate reader (FLIPR384, Molecular Devices Corporation). Fluorescence levels are monitored continuously every second for 150 seconds; after an initial 10 second baseline, CFTR channel activity is stimulated through the addition of 10 μM forskolin in the presence of 100 μM of the phosphodiesterase inhibitor iso-butyl-methylxanthine (IBMX). Addition of the forskolin leads to the activation of intracellular adenylyl cylase 1, elevating cAMP levels and results in the phosphorylation and opening of CFTR anion channels. CFTR channel opening causes chloride ion efflux and subsequent depolarization of the cells, which is measured by an increase in fluorescence. CFTR inhibitor compounds prevent cell depolarization and the associated increase in fluorescence.
as §1, with “Human colonic” for “For example, Human colonic”, “T84 cells are acquired from” for “T84 cells can be acquired from”, “(ECACC) and are grown in” for “(ECACC) and grown in”
Unless otherwise indicated, the IC50 values are reported as an average of at least 2 runs. Where only 1 run is used, this is indicated by the annotation “n=1.”

SMILES	pIC50
CCN(Cc1ccccc1)c1ccc(-c2cc(Cl)c(O)c(Cl)c2)nn1 [Compound 115, 4-(6-(benzyl(ethyl)amino)pyridazin-3-yl)-2,6-dichlorophenol]	8.00
OCCN(Cc1ccccc1)c1ccc(-c2cc(Cl)c(O)c(Cl)c2)nn1 [Compound 98, 4-(6-(benzyl(2-hydroxyethyl)amino)pyridazin-3-yl)-2,6-dichlorophenol]	6.20
CN(C)CCCOc1ccc(CN2CCC(COc3ccc(-c4cc(Cl)c(O)c(Cl)c4)nn3)(c3ccccc3)CC2)cc1 [Compound 107, 2,6-dichloro-4-(6-((1-(4-(3-(dimethylamino)propoxy)benzyl)-4-phenylpiperidin-4-yl)methoxy)pyridazin-3-yl)phenol]	5.55
CN(Cc1cccc(Oc2ccccn2)c1)c1ccc(-c2cc(Cl)c(O)c(Cl)c2)nn1 [Compound 120, 2,6-dichloro-4-(6-(methyl(3-(pyridin-2-yloxy)benzyl)amino)pyridazin-3-yl)phenol]	5.77
Oc1c(Br)cc(-c2ccc(OCc3cccc(Br)c3)nn2)cc1Br [Compound 91, 2,6-dibromo-4-(6-(3-bromobenzyloxy)pyridazin-3-yl)phenol]	4.58
CCN(Cc1cccc(F)c1)c1ccc(-c2cc(Cl)c(O)c(Cl)c2)nn1 [Compound 127, 2,6-dichloro-4-(6-(ethyl(3-fluorobenzyl)amino)pyridazin-3-yl)phenol]	7.52
CC(C)(C)OC(=O)N1CCC(COc2ccc(-c3cc(Cl)c(O)c(Cl)c3)nn2)(c2ccccc2)CC1 [Compound 101, tert-butyl 4-((6-(3,5-dichloro-4-hydroxyphenyl)pyridazin-3-yloxy)methyl)-4-phenylpiperidine-1-carboxylate]	4.90
Oc1c(Cl)cc(-c2ccc(OCc3ccc(F)cc3Cl)nn2)cc1Cl [Compound 96, 2,6-dichloro-4-(6-(2-chloro-4-fluorobenzyloxy)pyridazin-3-yl)phenol]	5.43
CCN(Cc1ccc(OCc2ccccc2)cc1)c1ccc(-c2cc(Cl)c(O)c(Cl)c2)nn1 [Compound 128, 4-(6-((4-(benzyloxy)benzyl)(ethyl)amino)pyridazin-3-yl)-2,6-dichlorophenol]	6.43
OCCN(Cc1ccccn1)c1ccc(-c2cc(Cl)c(O)c(Cl)c2)nn1 [Compound 113, 2,6-dichloro-4-(6-((2-hydroxyethyl)(pyridin-2-ylmethyl)amino)pyridazin-3-yl)phenol]	4.75
OCCN(Cc1cccc(Cl)c1Cl)c1ccc(-c2cc(Cl)c(O)c(Cl)c2)nn1 [Compound 123, 2,6-dichloro-4-(6-((2,3-dichlorobenzyl)(2-hydroxyethyl)amino)pyridazin-3-yl)phenol]	5.85
Oc1c(Cl)cc(-c2ccc(OCCc3cccc(Cl)c3)nn2)cc1Cl [Compound 104, 2,6-dichloro-4-(6-(3-chlorophenethoxy)pyridazin-3-yl)phenol]	4.98
Oc1c(Cl)cc(-c2ccc(N3CCN(c4cccc(F)c4)CC3)nn2)cc1Cl [Compound 135, 2,6-dichloro-4-(6-(4-(3-fluorophenyl)piperazin-1-yl)pyridazin-3-yl)phenol]	4.71
Oc1c(Cl)cc(-c2ccc(OCc3ccsc3)nn2)cc1Cl [Compound 106, 2,6-dichloro-4-(6-(thiophen-3-ylmethoxy)pyridazin-3-yl)phenol]	4.71
Oc1c(Cl)cc(-c2ccc(N3CCC(Cc4ccccc4)CC3)nn2)cc1Cl [Compound 136, 4-(6-(4-benzylpiperidin-1-yl)pyridazin-3-yl)-2,6-dichlorophenol]	4.60
CN(Cc1ccc(F)c(F)c1)c1ccc(-c2cc(Cl)c(O)c(Cl)c2)nn1 [Compound 121, 2,6-dichloro-4-(6-((3,4-difluorobenzyl)(methyl)amino)pyridazin-3-yl)phenol]	6.64

Each molecule was assayed on cholera toxin (CTX)-induced net fluid secretion in intestinal loops (assay: not given). Settings: 4 hours.
Type: in vivo, mice (CD1 strain)

SMILES	closed loop % inhibition @ 100 μg
CCN(Cc1ccccc1)c1ccc(-c2cc(Cl)c(O)c(Cl)c2)nn1 [Compound 115, 4-(6-(benzyl(ethyl)amino)pyridazin-3-yl)-2,6-dichlorophenol]	79.4%
OCCN(Cc1ccccc1)c1ccc(-c2cc(Cl)c(O)c(Cl)c2)nn1 [Compound 98, 4-(6-(benzyl(2-hydroxyethyl)amino)pyridazin-3-yl)-2,6-dichlorophenol]	67.0%
